Laboratory results reported in ChEMBL document CHEMBL3044631, “Synthesis of 2-[4,5-dimethyl-1-(phenylamino)-1H-imidazol-2-ylthio]-N-(thiazole-2-yl)acetamide derivatives and their anticancer activities” (2013).

How the values were obtained:
Type in all cases: functional
RPMI-8226 = assay: Anticancer activity against Homo sapiens (human) RPMI8226 cells assessed as cell growth promotion at 10 uM after 48 hr by SRB assay
U-251 [1] = assay: Anticancer activity against Homo sapiens (human) U251 cells assessed as cell growth promotion at 10 uM after 48 hr by SRB assay
SNB-75 [2] = assay: Anticancer activity against Homo sapiens (human) SNB75 cells assessed as cell growth promotion at 10 uM after 48 hr by SRB assay
MCF7 = assay: Anticancer activity against Homo sapiens (human) MCF7 cells assessed as cell growth promotion at 10 uM after 48 hr by SRB assay
SF-539 [3] = assay: Anticancer activity against Homo sapiens (human) SF539 cells assessed as cell growth promotion at 10 uM after 48 hr by SRB assay
NCI-H460 = assay: Anticancer activity against Homo sapiens (human) NCI-H460 cells assessed as cell growth promotion at 10 uM after 48 hr by SRB assay
NCI/ADR-RES = assay: Anticancer activity against Homo sapiens (human) NCI/ADR-RES cells after 48 hr by SRB assay
HL-60(TB) = assay: Anticancer activity against Homo sapiens (human) HL-60(TB) cells assessed as cell growth promotion at 10 uM after 48 hr by SRB assay
M14 = assay: Anticancer activity against Homo sapiens (human) M14 cells after 48 hr by SRB assay; settings: M14, 48 h
KM12 = assay: Anticancer activity against Homo sapiens (human) KM12 cells after 48 hr by SRB assay; settings: KM12, 48 h
EKVX = assay: Anticancer activity against Homo sapiens (human) EKVX cells assessed as cell growth promotion at 10 uM after 48 hr by SRB assay
SF-295 = assay: Anticancer activity against Homo sapiens (human) SF295 cells after 48 hr by SRB assay; settings: SF-295, 48 h
MDA-MB-231 = assay: Anticancer activity against Homo sapiens (human) MDA-MB-231/ATCC cells assessed as cell growth promotion at 10 uM after 48 hr by SRB assay
SNB-19 [4] = assay: Anticancer activity against Homo sapiens (human) SNB19 cells assessed as cell growth promotion at 10 uM after 48 hr by SRB assay
SF-268 = assay: Anticancer activity against Homo sapiens (human) SF268 cells after 48 hr by SRB assay; settings: SF-268, 48 h
T47D [5] = assay: Anticancer activity against Homo sapiens (human) T47D cells assessed as cell growth promotion at 10 uM after 48 hr by SRB assay
OVCAR-4 = assay: Anticancer activity against Homo sapiens (human) OVCAR4 cells after 48 hr by SRB assay; settings: OVCAR-4, 48 h
UACC-62 = assay: Anticancer activity against Homo sapiens (human) UACC62 cells after 48 hr by SRB assay; settings: UACC-62, 48 h
SW-620 = assay: Anticancer activity against Homo sapiens (human) SW620 cells after 48 hr by SRB assay; settings: SW-620, 48 h
SF-539 [6] = assay: Anticancer activity against Homo sapiens (human) SF539 cells after 48 hr by SRB assay; settings: SF-539, 48 h
U-251 [7] = assay: Anticancer activity against Homo sapiens (human) U251 cells after 48 hr by SRB assay; settings: U-251, 48 h
SNB-75 [8] = assay: Anticancer activity against Homo sapiens (human) SNB75 cells after 48 hr by SRB assay; settings: SNB-75, 48 h
HCT-15 = assay: Anticancer activity against Homo sapiens (human) HCT15 cells assessed as cell growth promotion at 10 uM after 48 hr by SRB assay
T47D [9] = assay: Anticancer activity against Homo sapiens (human) T47D cells after 48 hr by SRB assay
CAKI-1 = assay: Anticancer activity against Homo sapiens (human) CAKI-1 cells after 48 hr by SRB assay; settings: CAKI-1, 48 h
HCT-116 = assay: Anticancer activity against Homo sapiens (human) HCT116 cells assessed as cell growth promotion at 10 uM after 48 hr by SRB assay
SN12C = assay: Anticancer activity against Homo sapiens (human) SN12C cells assessed as cell growth promotion at 10 uM after 48 hr by SRB assay
MDA-MB-435 = assay: Anticancer activity against Homo sapiens (human) MDA-MB-435 cells after 48 hr by SRB assay; settings: MDA-MB-435, 48 h
OVCAR-3 = assay: Anticancer activity against Homo sapiens (human) OVCAR3 cells after 48 hr by SRB assay; settings: OVCAR-3, 48 h
IGROV-1 = assay: Anticancer activity against Homo sapiens (human) IGROV1 cells assessed as cell growth promotion at 10 uM after 48 hr by SRB assay
SNB-19 [10] = assay: Anticancer activity against Homo sapiens (human) SNB19 cells after 48 hr by SRB assay; settings: SNB-19, 48 h
LOX IMVI = assay: Anticancer activity against Homo sapiens (human) LOXIMVI cells assessed as cell growth promotion at 10 uM after 48 hr by SRB assay
HT-29 = assay: Anticancer activity against Homo sapiens (human) HT-29 cells assessed as cell growth promotion at 10 uM after 48 hr by SRB assay
786-0 = assay: Anticancer activity against Homo sapiens (human) 786-0 cells assessed as cell growth promotion at 10 uM after 48 hr by SRB assay
UO-31 = assay: Anticancer activity against Homo sapiens (human) UO31 cells assessed as cell growth promotion at 10 uM after 48 hr by SRB assay

## Cc1ccc(Nn2c(SCC(=O)Nc3nc(-c4ccccc4)cs3)nc(C)c2C)cc1
RPMI-8226
  Activity: 55.78%
U-251 [1]
  Activity: 49.3%
SNB-75 [2]
  Activity: 38.33%
MCF7
  Activity: 24.07%
SF-539 [3]
  Activity: 73.68%
NCI-H460
  Activity: 78.13%
NCI/ADR-RES
  GI50: 3.04 µM
  LC50: > 100 µM
  TGI: 22.2 µM
HL-60(TB)
  Activity: 63.8%
M14
  GI50: 3.7 µM
  LC50: > 100 µM
  TGI: 48.6 µM
KM12
  GI50: 4.13 µM
  LC50 (concentration killing 50% of cells): > 100 µM
  TGI: 19.1 µM
EKVX
  Activity: 49.68%
SF-295
  GI50: 1.06 µM
  LC50: > 100 µM
  TGI: 5.89 µM
MDA-MB-231
  Activity: 46%
SNB-19 [4]
  Activity: 74.35%
SF-268
  GI50: 9.1 µM
  LC50: > 100 µM
  TGI: > 100 µM
T47D [5]
  Activity: 6.48%
OVCAR-4
  GI50: 2.13 µM
  LC50 (concentration killing 50% of starting cells): > 100 µM
  TGI: > 100 µM
UACC-62
  GI50: 3.15 µM
  LC50: > 100 µM
  TGI: > 100 µM
SW-620
  GI50: 8.03 µM
  LC50 (concentration killing 50% of cells): > 100 µM
  TGI: > 100 µM
SF-539 [6]
  GI50: 4.68 µM
  LC50 (concentration killing 50% of cells): > 100 µM
  TGI: 35.2 µM
U-251 [7]
  GI50: 4.5 µM
  LC50 (lethal concentration, 50% net cell kill): > 100 µM
  TGI: > 100 µM
SNB-75 [8]
  GI50: 2.81 µM
  LC50: > 100 µM
  TGI: > 100 µM
HCT-15
  Activity: 67.18%
T47D [9]
  GI50: 1.85 µM
  TGI: 10.4 µM
T47D [9]; read-out: LC50 (the source's name)
  CC50: > 100 µM
CAKI-1
  GI50: 1.86 µM
  LC50 (concentration killing 50% of cells): 99.3 µM
  TGI: 6.1 µM
HCT-116
  Activity: 40.22%
SN12C
  Activity: 64.31%
MDA-MB-435
  GI50: 2.66 µM
  LC50 (concentration killing 50% of cells): > 100 µM
  TGI: 9.54 µM
OVCAR-3
  GI50: 8.24 µM
  LC50 (50% lethal concentration): > 100 µM
  TGI: > 100 µM
IGROV-1
  Activity: 86%
SNB-19 [10]
  GI50: 7.49 µM
  LC50: > 100 µM
  TGI: > 100 µM
LOX IMVI
  Activity: 51.93%
HT-29
  Activity: 56.13%
786-0
  Activity: 82.27%
UO-31
  Activity: 51.58%
